According to article PMC9072010, “Synthesis and bioevaluation of thienopyrimidines bearing a pyrazoline unit as selective PI3Kα inhibitors” (RSC Advances, 2019):

Legend:
PI3Kα = PI3Kα (Homo sapiens, UniProt P42336); experiment: Kinase-Glo Luminescent Kinase Assay, PI3Kα; type: biochemical; details: average of two separate determinations
Method: The experiment was conducted according to the method reported by our research group.[17]

HepG2 cancer cell lines = experiment: MTT antiproliferative assay, HepG2; type: cell-based, human
A549 cancer cell lines [1] = experiment: MTT antiproliferative assay, A549; type: cell-based, human
mTOR = mTOR (Homo sapiens, UniProt P42345); experiment: Kinase-Glo Luminescent Kinase Assay, mTOR; type: biochemical; details: average of two separate determinations
MCF-7 cancer cell lines = experiment: MTT antiproliferative assay, MCF-7; type: cell-based, human
A549 cells = experiment: Annexin V-FITC/PI double staining by flow cytometry; type: cell-based, human
A549 cancer cell lines [2] = experiment: Acridine orange (AO) single staining; type: cell-based, human; details: A549, fluorescence microscopy, Fig. 4
Method: In order to investigate whether the target compound 13f could induce the apoptosis of A549 cancer cell lines, acridine orange (AO) staining assay was carried out. […] But in the test group (Fig. 4b), the cell shape was abnormal with cell shrinkage, chromatin condensation after compound 13f acted on the A549 cells.
The cancer cell apoptotic of target compound 13f were evaluated with A549 cancer cell lines by acridine orange single staining. The experiment was conducted according to the method reported by our research group.[18]

[3] = Homo sapiens, HepG2, Table 2, average of two separate determinations
[4] = Homo sapiens, A549, Table 2, average of two separate determinations
[5] = Homo sapiens, MCF7, Table 2, average of two separate determinations
[6] = Homo sapiens, MCF7, Table 1, average of two separate determinations
[7] = Homo sapiens, HepG2, Table 1, average of two separate determinations
[8] = Homo sapiens, A549, Table 1, average of two separate determinations
[9] = Table 2, average of two separate determinations

Sequence of PI3Kα (P42336 whole entry): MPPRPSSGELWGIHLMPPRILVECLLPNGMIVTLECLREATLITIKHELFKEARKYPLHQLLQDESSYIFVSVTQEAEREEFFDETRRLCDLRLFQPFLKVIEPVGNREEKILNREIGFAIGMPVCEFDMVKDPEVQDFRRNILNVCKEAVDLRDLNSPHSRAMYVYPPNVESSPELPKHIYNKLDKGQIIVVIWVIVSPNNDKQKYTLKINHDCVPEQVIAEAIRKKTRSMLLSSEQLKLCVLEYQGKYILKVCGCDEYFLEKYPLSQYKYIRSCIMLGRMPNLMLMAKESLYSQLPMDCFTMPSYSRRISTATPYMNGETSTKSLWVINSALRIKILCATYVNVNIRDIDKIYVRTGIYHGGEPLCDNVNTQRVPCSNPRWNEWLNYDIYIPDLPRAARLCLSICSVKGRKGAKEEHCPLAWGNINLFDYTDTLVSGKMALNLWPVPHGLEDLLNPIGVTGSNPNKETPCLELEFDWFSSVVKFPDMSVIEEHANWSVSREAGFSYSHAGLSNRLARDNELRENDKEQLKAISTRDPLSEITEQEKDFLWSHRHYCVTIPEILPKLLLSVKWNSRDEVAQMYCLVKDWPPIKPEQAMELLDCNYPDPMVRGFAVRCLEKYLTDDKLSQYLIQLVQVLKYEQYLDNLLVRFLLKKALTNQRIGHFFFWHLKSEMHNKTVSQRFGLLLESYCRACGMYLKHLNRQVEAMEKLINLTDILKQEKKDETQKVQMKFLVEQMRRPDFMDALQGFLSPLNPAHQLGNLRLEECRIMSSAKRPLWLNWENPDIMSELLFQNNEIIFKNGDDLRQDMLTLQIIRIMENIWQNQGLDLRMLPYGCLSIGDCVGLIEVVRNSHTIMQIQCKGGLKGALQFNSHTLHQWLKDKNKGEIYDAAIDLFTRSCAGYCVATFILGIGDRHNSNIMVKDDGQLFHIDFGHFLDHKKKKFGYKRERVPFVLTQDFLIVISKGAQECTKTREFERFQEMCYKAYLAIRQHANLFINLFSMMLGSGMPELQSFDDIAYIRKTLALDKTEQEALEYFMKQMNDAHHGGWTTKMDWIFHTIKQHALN
Sequence of PI3Kα (P27986 whole entry partner): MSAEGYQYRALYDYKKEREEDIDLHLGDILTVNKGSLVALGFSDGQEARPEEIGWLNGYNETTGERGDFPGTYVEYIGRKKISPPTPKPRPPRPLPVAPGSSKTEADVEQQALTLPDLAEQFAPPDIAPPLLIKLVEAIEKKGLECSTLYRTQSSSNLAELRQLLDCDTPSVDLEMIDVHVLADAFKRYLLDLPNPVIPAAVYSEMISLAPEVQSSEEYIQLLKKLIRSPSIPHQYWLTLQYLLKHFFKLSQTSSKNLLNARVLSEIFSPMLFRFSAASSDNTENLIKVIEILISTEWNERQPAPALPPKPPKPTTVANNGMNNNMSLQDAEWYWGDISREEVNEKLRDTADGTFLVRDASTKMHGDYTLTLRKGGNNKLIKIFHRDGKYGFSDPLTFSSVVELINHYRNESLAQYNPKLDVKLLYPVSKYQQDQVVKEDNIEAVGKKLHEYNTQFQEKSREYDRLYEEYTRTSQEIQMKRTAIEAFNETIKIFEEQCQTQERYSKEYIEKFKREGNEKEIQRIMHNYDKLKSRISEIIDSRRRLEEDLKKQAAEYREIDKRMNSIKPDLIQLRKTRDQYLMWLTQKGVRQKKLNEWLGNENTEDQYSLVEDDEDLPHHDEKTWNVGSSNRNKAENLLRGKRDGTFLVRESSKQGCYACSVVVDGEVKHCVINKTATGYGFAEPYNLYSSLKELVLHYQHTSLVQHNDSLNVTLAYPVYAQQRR

Molecule | melting point | IC50 (HepG2 cancer cell lines; [3]) | IC50 (A549 cancer cell lines [1]; [4]) | IC50 (MCF-7 cancer cell lines; [5]) | IC50 (MCF-7 cancer cell lines; [6]) | IC50 (HepG2 cancer cell lines; [7]) | IC50 (A549 cancer cell lines [1]; [8]) | further results
Fc1ccc(-c2ccnn2-c2nc(N3CCOCC3)c3ccsc3n2)cc1 [Compound 7c, 4-(2-(5-(4-Fluorophenyl)-1H-pyrazol-1-yl)thieno[2,3-d]pyrimidin-4-yl)morpholine] | 202 to 205 °C |  |  |  | > 100 µM | > 100 µM | > 100 µM | 
Clc1ccc(-c2ccnn2-c2nc(N3CCOCC3)c3ccsc3n2)cc1 [Compound 7d, 4-(2-(5-(4-Chlorophenyl)-1H-pyrazol-1-yl)thieno[2,3-d]pyrimidin-4-yl)morpholine] | 280 to 282 °C |  |  |  | > 100 µM | > 100 µM | > 100 µM | 
Clc1ccc(-c2ccnn2-c2nc(N3CCOCC3)c3sccc3n2)cc1 [Compound 4d, 4-(2-(5-(4-Chlorophenyl)-1H-pyrazol-1-yl)thieno[3,2-d]pyrimidin-4-yl)morpholine] | 250 to 251 °C |  |  |  | > 100 µM | > 100 µM | > 100 µM | 
Cc1ccc(-c2ccnn2-c2nc(N3CCOCC3)c3ccsc3n2)cc1 [Compound 7b, 4-(2-(5-(p-Tolyl)-1H-pyrazol-1-yl)thieno[2,3-d]pyrimidin-4-yl)morpholine] | 286 to 289 °C |  |  |  | 30.9 ± 1.05 µM | 33.9 ± 1.13 µM | 35 ± 0.97 µM | 
Fc1ccc(-c2ccnn2-c2nc(N3CCOCC3)c3sccc3n2)cc1 [Compound 4c, 4-(2-(5-(4-Fluorophenyl)-1H-pyrazol-1-yl)thieno[3,2-d]pyrimidin-4-yl)morpholine] | 228 to 231 °C |  |  |  | > 100 µM | > 100 µM | > 100 µM | 
Cc1ccc(-c2ccnn2-c2nc(N3CCOCC3)c3sccc3n2)cc1 [Compound 4b, 4-(2-(5-(p-Tolyl)-1H-pyrazol-1-yl)thieno[3,2-d]pyrimidin-4-yl)morpholine] | 166.8 to 171.5 °C |  |  |  | > 100 µM | > 100 µM | > 100 µM | 
c1ccc(-c2ccnn2-c2nc(N3CCOCC3)c3ccsc3n2)cc1 [Compound 7a, 4-(2-(5-Phenyl-1H-pyrazol-1-yl)thieno[2,3-d]pyrimidin-4-yl)morpholine] | 223 to 225 °C |  |  |  | 25.3 ± 0.93 µM | 20.2 ± 1.15 µM | 37.6 ± 1.88 µM | 
N ^1-(2-(3-(3,4-Dichlorophenyl)-3-phenyl-4,5-dihydro-1H-pyrazol-1-yl)thieno[2,3-d]pyrimidine-4-yl)-N^1, N^2,N^2-trimethylethane-1,2-diamine [Compound 13e] |  |  |  |  |  |  |  | IC50 (MCF-7 cancer cell lines; [9]): 10.5 ± 0.54 µM; IC50 (HepG2 cancer cell lines; [9]): 8.05 ± 0.05 µM; IC50 (A549 cancer cell lines [1]; [9]): 13.4 ± 0.29 µM
c1ccc(-c2ccnn2-c2nc(N3CCOCC3)c3sccc3n2)cc1 [Compound 4a, 4-(2-(5-Phenyl-1H-pyrazol-1-yl)thieno[3,2-d]pyrimidin-4-yl)morpholine] | 243.6 to 244.8 °C |  |  |  | > 100 µM | > 100 µM | > 100 µM | 

Continued, in another order:

melting point | IC50 (HepG2 cancer cell lines; [3]) | IC50 (A549 cancer cell lines [1]; [4]) | IC50 (MCF-7 cancer cell lines; [5]) | IC50 (MCF-7 cancer cell lines; [6]) | IC50 (HepG2 cancer cell lines; [7]) | IC50 (A549 cancer cell lines [1]; [8]) | Molecule | further results
232 to 233 °C |  |  |  |  |  |  | COc1ccc(C2CC(c3ccc(Cl)c(Cl)c3)=NN2c2nc(N(C)CCN(C)C)c3ccsc3n2)cc1 (stereo not drawn) [Compound 13a, N ^1-(2-(3-(3,4-Dichlorophenyl)-5-(4-methoxyphenyl)-4,5-dihydro-1H-pyrazol-1-yl)thieno[2,3-d]pyrimidin-4-yl)-N^1,N^2,N^2-trimethylethane-1,2-diamine] | 
272 to 273 °C | 4.45 ± 0.25 µM | 5.43 ± 0.17 µM |  |  |  |  | Cc1ccc(C2CC(c3ccc(Br)cc3)=NN2c2nc(N(C)CCN(C)C)c3ccsc3n2)cc1 (stereo not drawn) [Compound 13h, N ^1-(2-(3-(4-Bromophenyl)-5-(p-tolyl)-4,5-dihydro-1H-pyrazol-1-yl)thieno[2,3-d]pyrimidin-4-yl)-N^1,N^2,N^2-trimethylethane-1,2-diamine] | IC50 (PI3Kα): 7.16 ± 0.27 µM; IC50 (mTOR): > 10 µM
261 to 262 °C | 15.8 ± 1.23 µM | 22.95 ± 0.15 µM | 17.2 ± 0.48 µM |  |  |  | CN(C)CCN(C)c1nc(N2N=C(c3ccc(Br)cc3)CC2c2ccccc2)nc2sccc12 (stereo not drawn) [Compound 13l, N ^1-(2-(3-(4-Bromophenyl)-5-phenyl-4,5-dihydro-1H-pyrazol-1-yl)thieno[2,3-d]pyrimidin-4-yl)-N^1,N^2,N^2-trimethylethane-1,2-diamine] | 
225 to 227 °C | 6.7 ± 0.14 µM | 9.43 ± 0.1 µM | 5.04 ± 0.06 µM |  |  |  | CN(C)CCN(C)c1nc(N2N=C(c3ccccc3)CC2c2ccccc2)nc2sccc12 (stereo not drawn) [Compound 13i, N ^1-(2-(3,5-Diphenyl-4,5-dihydro-1H-pyrazol-1-yl)thieno[2,3-d]pyrimidin-4-yl)-N^1,N^2,N^2-trimethylethane-1,2-diamine] | 
291 to 292 °C | 10.9 ± 0.2 µM | 22.7 ± 0.35 µM | 18.39 ± 0.18 µM |  |  |  | CN(C)CCN(C)c1nc(N2N=C(c3ccc(Br)cc3)CC2c2ccc(F)cc2)nc2sccc12 (stereo not drawn) [Compound 13k, N ^1-(2-(3-(4-Bromophenyl)-5-(4-fluorophenyl)-4,5-dihydro-1H-pyrazol-1-yl)thieno[2,3-d]pyrimidin-4-yl)-N^1,N^2,N^2-trimethylethane-1,2-diamine] | 
256 to 257 °C | 6.66 ± 0.13 µM | 9.23 ± 0.02 µM | 6.51 ± 0.31 µM |  |  |  | CN(C)CCN(C)c1nc(N2N=C(c3ccc(F)cc3)CC2c2ccc(F)cc2)nc2sccc12 (stereo not drawn) [Compound 13c, N ^1-(2-(3,5-Bis(4-fluorophenyl)-4,5-dihydro-1H-pyrazol-1-yl)thieno[2,3-d]pyrimidin-4-yl)-N^1,N^2,N^2-tri-methylethane-1,2-diamine] | IC50 (PI3Kα): 4.62 ± 0.54 µM; IC50 (mTOR): > 10 µM
269 to 270 °C | 6.96 ± 0.44 µM | 8.75 ± 0.24 µM | 4.98 ± 0.04 µM |  |  |  | Cc1ccc(C2CC(c3ccc(Cl)c(Cl)c3)=NN2c2nc(N(C)CCN(C)C)c3ccsc3n2)cc1 (stereo not drawn) [Compound 13g, N ^1-(2-(3-(3,4-Dichlorophenyl)-5-(p-tolyl)-4,5-dihydro-1H-pyrazol-1-yl)thieno[2,3-d]pyrimidin-4-yl)-N^1,N^2,N^2-trimethylethane-1,2-diamine] | IC50 (PI3Kα): 3.31 ± 0.12 µM; IC50 (mTOR): > 10 µM
286 to 287 °C | 83.86 ± 0.17 µM |  |  |  |  |  | COc1ccc(C2CC(c3ccc(F)cc3)=NN2c2nc(N(C)CCN(C)C)c3ccsc3n2)cc1 (stereo not drawn) [Compound 13j, N ^1-(2-(3-(4-Fluorophenyl)-5-(4-methoxyphenyl)-4,5-dihydro-1H-pyrazol-1-yl)thieno[2,3-d]pyrimidin-4-yl)-N^1,N^2,N^2-trimethylethane-1,2-diamine] | 
291 to 294 °C | 12.9 ± 0.64 µM | 17.43 ± 0.13 µM | 12.8 ± 0.23 µM |  |  |  | CN(C)CCN(C)c1nc(N2N=C(c3ccc(Cl)c(Cl)c3)CC2c2ccc(Br)cc2)nc2sccc12 (stereo not drawn) [Compound 13b, N ^1-(2-(5-(4-Bromophenyl)-3-(3,4-dichlorophenyl)-4,5-dihydro-1H-pyrazol-1-yl)thieno[2,3-d]pyrimidin-4-yl)-N^1,N^2,N^2-trimethylethane-1,2-diamine] | 
244 to 247 °C | 7.27 ± 0.68 µM | 9.17 ± 0.32 µM | 6.82 ± 0.17 µM |  |  |  | CN(C)CCN(C)c1nc(N2N=C(c3ccc(Cl)c(Cl)c3)CC2c2ccc(F)cc2)nc2sccc12 (stereo not drawn) [Compound 13d, N ^1-(2-(3-(3,4-Dichlorophenyl)-5-(4-fluorophenyl)-4,5-dihydro-1H-pyrazol-1-yl)thieno[2,3-d]pyrimidin-4-yl)-N^1,N^2,N^2-trimethylethane-1,2-diamine] | 
 | 0.07 ± 0.03 µM |  | 0.2 ± 0.08 µM | 0.07 ± 0.03 µM | 0.2 ± 0.08 µM | 6.99 ± 0.21 µM | CS(=O)(=O)N1CCN(Cc2cc3nc(-c4cccc5[nH]ncc45)nc(N4CCOCC4)c3s2)CC1 [GDC-0941, reference compound] | 
 | 2.08 ± 0.36 µM | 2.84 ± 0.09 µM | 2.88 ± 0.43 µM |  |  |  | COc1ccc(C2CC(c3ccccc3)=NN2c2nc(N(C)CCN(C)C)c3ccsc3n2)cc1 (stereo not drawn) [Compound 13f, N ^1-(2-(5-(4-Methoxyphenyl)-3-phenyl-4,5-dihydro-1H-pyrazol-1-yl)thieno[2,3-d]pyrimidin-4-yl)-N^1,N^2,N^2-trimethylethane-1,2-diamine] | IC50 (PI3Kα): 0.92 ± 0.14 µM; early apoptotic cells (A549 cells; A549, 1.6 μM, 24 h): 9.14%; late apoptotic cells (A549 cells; A549, 1.6 μM, 24 h): 7.68%; induction of apoptosis (Annexin V-FITC/PI) (A549 cells; A549, 0.2-1.6 μM): induce apoptosis in a concentration-dependent manner; inhibition of proliferation of A549 cancer cell lines (dose and time dependence) (A549 cancer cell lines [1]; several concentrations and exposure times, Fig. 3): dose-dependent and time-dependent; IC50 (mTOR): > 10 µM; induction of apoptosis (cell morphology, AO staining) (A549 cancer cell lines [2]): could induce apoptosis
